Results: patent US8558002B2, “Sulfoximines as kinase inhibitors” (Allergan, Inc., priority 2006, dated 2013)

Key:
VEGFR2 [1] = biological target: T1, VEGFR2 (Homo sapiens, UniProt P35968); assay: VEGFR2 Kinase Assay (biochemical KDR kinase, poly-Glu-Tyr ELISA); parameters: 200-300 ng purified cytoplasmic domain KDR protein; purchased BPS Bioscience; conditions: purified cytoplasmic domain KDR protein, 2.7 μM ATP
Procedure: Biochemical KDR kinase assays were performed in 96 well microtiter plates that were coated overnight with 75 μg/well of poly-Glu-Tyr (4:1) in 10 mM Phosphate Buffered Saline (PBS), pH 7.4. The coated plates were washed with 2 mls per well PBS+0.05% Tween-20 (PBS-T), blocked by incubation with PBS containing 1% BSA, then washed with 2 mls per well PBS-T prior to starting the reaction. Reactions were carried out in […] reaction volumes containing 2.7 μM ATP in kinase buffer (50 mM Hepes buffer pH 7.4, 20 mM MgCl2, 0.1 mM MnCl2 and 0.2 mM Na3VO4). Test compounds were reconstituted in 100% DMSO and added to the reaction to give a final DMSO concentration of 5%. Reactions were initiated by the addition 20 ul per well of kinase buffer containing 200-300 ng purified cytoplasmic domain KDR protein (BPS Bioscience, San Diego, Calif.). Following a 15 minute incubation at 30° C., the reactions were washed 2 mls per well PBS-T. 100 μl of a monoclonal anti-phosphotyrosine antibody-peroxidase conjugate diluted 1:10,000 in PBS-T was added to the wells for 30 minutes. Following a 2 mls per well wash with PBS-Tween-20, 100 μl of O-Phenylenediamine Dihydrochloride in phosphate-citrate buffer, containing urea hydrogen peroxide, was added to the wells for 7-10 minutes as a colorimetric substrate for the peroxidase. The reaction was terminated by the addition of 100 μl of 2.5NH2SO4 to each well and read using a microplate ELISA reader set at 492 nm. IC50 values for compound inhibition were calculated directly from graphs of optical density (arbitrary units) versus compound concentration following subtraction of blank values.
Target sequence in this assay (P35968 786-1356 limits assumed): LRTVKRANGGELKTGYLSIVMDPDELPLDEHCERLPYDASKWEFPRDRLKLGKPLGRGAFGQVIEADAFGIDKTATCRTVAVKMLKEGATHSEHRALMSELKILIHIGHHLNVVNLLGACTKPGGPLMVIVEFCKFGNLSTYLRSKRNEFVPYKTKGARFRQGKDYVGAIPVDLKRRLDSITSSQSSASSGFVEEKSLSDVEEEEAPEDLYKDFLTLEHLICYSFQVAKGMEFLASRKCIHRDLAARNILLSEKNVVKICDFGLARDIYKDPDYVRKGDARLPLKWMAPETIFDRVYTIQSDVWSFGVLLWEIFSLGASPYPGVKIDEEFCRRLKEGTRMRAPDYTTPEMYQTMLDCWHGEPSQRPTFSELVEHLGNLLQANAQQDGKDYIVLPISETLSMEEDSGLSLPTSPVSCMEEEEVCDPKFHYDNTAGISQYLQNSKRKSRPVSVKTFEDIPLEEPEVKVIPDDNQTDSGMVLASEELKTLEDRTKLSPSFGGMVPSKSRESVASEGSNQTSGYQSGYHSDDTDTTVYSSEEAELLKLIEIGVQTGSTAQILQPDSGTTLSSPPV

VEGFR2 [2] = biological target: T1, VEGFR2; assay: VEGFR2 Cellular Assay (FLIPR, VEGF induced increases in intracellular calcium in HUVEC); format: cell-based; parameters: host or cells: HUVEC; conditions: VEGF165 stimulation (10 ng/mL), Fluo-4
Procedure: Automated FLIPR (Fluorometric Imaging Plate Reader) technology was used to screen for inhibitors of VEGF induced increases in intracellular calcium levels in fluorescent dye loaded endothelial cells. HUVEC (human umbilical vein endothelial cells) (Clonetics) were seeded in 384-well fibronectin coated black-walled plates overnight @ 37° C./5% CO2. Cells were loaded with calcium indicator Fluo-4 for 45 minutes at 37° C. Cells were washed 2 times (El×405, Biotek Instruments) to remove extracellular dye. For screening, cells were pre-incubated with test agents for 30 minutes, at a single concentration (10 uM) or at concentrations ranging from 0.0001 to 10.0 uM followed by VEGF165 stimulation (10 ng/mL). Changes in fluorescence at 516 nm were measured simultaneously in all 384 wells using a cooled CCD camera. Data were generated by determining max-min fluorescence levels for unstimulated, stimulated, and drug treated samples. IC50 values for test compounds were calculated from % inhibition of VEGF stimulated responses in the absence of inhibitor.
Target sequence in this assay (P35968 20-1356): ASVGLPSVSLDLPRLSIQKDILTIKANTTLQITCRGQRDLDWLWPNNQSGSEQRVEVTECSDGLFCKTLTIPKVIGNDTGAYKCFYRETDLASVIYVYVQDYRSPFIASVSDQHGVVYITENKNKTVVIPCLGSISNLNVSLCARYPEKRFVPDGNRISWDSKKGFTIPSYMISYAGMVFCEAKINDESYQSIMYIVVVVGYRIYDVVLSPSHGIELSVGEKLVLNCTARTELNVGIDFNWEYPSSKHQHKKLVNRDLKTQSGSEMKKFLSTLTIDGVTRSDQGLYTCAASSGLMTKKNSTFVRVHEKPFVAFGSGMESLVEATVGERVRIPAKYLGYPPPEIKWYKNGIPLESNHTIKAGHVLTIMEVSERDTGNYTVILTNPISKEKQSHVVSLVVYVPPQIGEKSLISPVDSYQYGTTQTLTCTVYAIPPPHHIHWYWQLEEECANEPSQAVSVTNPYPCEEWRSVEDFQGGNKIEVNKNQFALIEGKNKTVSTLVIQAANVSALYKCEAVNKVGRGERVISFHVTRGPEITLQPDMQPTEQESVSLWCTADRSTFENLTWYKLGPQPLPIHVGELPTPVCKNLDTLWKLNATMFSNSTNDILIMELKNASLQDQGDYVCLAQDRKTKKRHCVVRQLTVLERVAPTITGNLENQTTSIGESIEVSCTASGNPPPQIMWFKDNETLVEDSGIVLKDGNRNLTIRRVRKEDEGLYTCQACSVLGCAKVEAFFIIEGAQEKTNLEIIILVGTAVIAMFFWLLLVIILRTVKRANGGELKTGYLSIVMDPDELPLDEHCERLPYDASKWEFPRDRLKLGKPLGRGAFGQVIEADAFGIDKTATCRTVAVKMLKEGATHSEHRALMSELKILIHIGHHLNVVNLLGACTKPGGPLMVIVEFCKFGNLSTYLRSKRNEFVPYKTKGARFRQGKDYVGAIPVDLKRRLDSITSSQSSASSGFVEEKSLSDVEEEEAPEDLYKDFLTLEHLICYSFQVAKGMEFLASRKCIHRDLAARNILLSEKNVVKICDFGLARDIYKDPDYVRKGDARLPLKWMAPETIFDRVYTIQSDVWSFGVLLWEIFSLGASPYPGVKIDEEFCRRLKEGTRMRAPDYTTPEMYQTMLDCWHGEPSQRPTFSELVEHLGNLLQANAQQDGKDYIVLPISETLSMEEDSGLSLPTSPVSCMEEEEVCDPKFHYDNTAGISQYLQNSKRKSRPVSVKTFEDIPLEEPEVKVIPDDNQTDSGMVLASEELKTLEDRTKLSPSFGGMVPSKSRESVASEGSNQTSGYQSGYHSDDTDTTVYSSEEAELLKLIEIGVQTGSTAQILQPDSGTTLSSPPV

PDGFRβ = biological target: T2, PDGFRβ (Homo sapiens, UniProt P09619); assay: PDGFRβ Kinase Assay (poly-Glu-Tyr ELISA); format: biochemical; conditions: purified cytoplasmic domain PDGFR-b protein, 36 μM ATP
T2 construct: 200-300 ng purified cytoplasmic domain PDGFR-b protein (Millipore); purchased Millipore
Procedure: Biochemical PDGFRβ kinase assays were performed in 96 well microtiter plates that were coated overnight with 75 μg of poly-Glu-Tyr (4:1) in 10 mM Phosphate Buffered Saline (PBS), pH 7.4. The coated plates were washed with 2 mls per well PBS+0.05% Tween-20 (PBS-T), blocked by incubation with PBS containing 1% BSA, then washed with 2 mls per well PBS-T prior to starting the reaction. Reactions were carried out in 100 μL reaction volumes containing 36 μM ATP in kinase buffer (50 mM Hepes buffer pH 7.4, 20 mM MgCl2, 0.1 mM MnCl2 and 0.2 mM Na3VO4). Test compounds were reconstituted in 100% DMSO and added to the reaction to give a final DMSO concentration of 5%. Reactions were initiated by the addition 20 ul per well of kinase buffer containing 200-300 ng purified cytoplasmic domain PDGFR-b protein (Millipore). Following a 60 minute incubation at 30° C., the reactions were washed 2 mls per well PBS-T. […] of a monoclonal anti-phosphotyrosine antibody-peroxidase conjugate diluted 1:10,000 in PBS-T was added to the wells for 30 minutes. Following a 2 mls per well wash with PBS-Tween-20, 100 μl of O-Phenylenediamine Dihydrochloride in phosphate-citrate buffer, containing urea hydrogen peroxide, was added to the wells for 7-10 minutes as a colorimetric substrate for the peroxidase. The reaction was terminated by the addition of 100 μl of 2.5N H2SO4 to each well and read using a microplate ELISA reader set at 492 nm. IC50 values for compound inhibition were calculated directly from graphs of optical density (arbitrary units) versus compound concentration following subtraction of blank values.

VEGFR1 = VEGFR1 (Homo sapiens, UniProt P17948); assay: VEGFR1 Kinase; format: biochemical
Sequence of VEGFR1 (P17948 27-1338, species assumed): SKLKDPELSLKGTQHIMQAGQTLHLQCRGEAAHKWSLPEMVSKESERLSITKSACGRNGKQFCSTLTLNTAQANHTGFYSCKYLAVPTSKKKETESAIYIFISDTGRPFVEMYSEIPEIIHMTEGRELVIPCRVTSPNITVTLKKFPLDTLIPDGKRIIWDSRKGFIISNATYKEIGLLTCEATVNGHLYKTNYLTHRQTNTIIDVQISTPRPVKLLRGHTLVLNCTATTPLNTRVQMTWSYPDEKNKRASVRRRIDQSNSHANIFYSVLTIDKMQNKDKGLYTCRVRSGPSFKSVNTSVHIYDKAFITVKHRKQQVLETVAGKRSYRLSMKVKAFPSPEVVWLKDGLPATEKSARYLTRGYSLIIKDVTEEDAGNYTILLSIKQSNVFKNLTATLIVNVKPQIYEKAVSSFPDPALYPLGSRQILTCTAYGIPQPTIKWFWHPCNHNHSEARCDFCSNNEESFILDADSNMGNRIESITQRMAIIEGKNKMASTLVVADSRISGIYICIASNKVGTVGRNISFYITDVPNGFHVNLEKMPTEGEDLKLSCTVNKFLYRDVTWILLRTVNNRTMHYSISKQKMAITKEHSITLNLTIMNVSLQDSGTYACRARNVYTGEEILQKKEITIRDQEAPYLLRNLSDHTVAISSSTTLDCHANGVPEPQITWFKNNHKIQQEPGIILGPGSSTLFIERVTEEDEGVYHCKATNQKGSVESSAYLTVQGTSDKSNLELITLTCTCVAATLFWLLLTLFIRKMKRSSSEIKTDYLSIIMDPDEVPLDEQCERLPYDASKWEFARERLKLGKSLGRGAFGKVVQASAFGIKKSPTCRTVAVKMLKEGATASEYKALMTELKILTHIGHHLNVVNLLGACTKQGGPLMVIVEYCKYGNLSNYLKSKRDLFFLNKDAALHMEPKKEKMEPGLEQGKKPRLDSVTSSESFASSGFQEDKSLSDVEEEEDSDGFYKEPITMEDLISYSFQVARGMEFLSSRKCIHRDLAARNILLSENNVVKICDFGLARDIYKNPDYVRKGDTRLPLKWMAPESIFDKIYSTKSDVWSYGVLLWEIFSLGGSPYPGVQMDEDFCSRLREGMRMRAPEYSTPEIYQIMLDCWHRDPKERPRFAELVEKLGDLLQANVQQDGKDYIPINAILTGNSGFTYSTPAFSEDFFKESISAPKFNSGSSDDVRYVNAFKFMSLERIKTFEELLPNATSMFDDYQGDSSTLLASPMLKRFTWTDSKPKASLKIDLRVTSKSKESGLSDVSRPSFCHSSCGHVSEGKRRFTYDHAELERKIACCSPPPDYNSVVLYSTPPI

T2 sequence (P09619 554-1106 limits assumed): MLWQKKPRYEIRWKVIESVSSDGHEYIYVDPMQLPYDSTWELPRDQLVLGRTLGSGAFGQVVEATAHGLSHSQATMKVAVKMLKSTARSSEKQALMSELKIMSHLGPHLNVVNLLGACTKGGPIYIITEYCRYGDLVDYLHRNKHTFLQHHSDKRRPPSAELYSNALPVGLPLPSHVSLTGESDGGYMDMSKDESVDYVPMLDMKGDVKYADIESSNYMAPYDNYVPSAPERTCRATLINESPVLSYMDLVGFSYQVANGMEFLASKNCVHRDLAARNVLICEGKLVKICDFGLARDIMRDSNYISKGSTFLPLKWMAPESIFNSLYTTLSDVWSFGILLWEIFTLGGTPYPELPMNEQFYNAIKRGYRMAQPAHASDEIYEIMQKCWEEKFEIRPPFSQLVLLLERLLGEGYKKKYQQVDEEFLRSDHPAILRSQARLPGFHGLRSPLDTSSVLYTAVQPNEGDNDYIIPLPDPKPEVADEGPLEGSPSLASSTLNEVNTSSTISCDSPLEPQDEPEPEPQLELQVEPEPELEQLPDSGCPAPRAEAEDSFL

IC50 (VEGFR2 [1]) [nM]	IC50 (VEGFR2 [2]) [nM]	IC50 (PDGFRβ) [nM]	IC50 (VEGFR1) [nM]	SMILES
13	5	20	23	COC(=O)CCCCS(=O)(CCCCC(=O)OC)=NC(=O)c1cnc(N)c(C#Cc2ccc(NC(=O)Nc3cc(C)ccc3F)cc2)c1 [Example 19, Dimethyl 5,5′-{N-[(6-amino-5-{[4-({[(2-fluoro-5-methylphenyl)amino]carbonyl}amino)phenyl]ethynyl}pyridin-3-yl)carbonyl]sulfonimidoyl}dipentanoate]
3	3	176	10	COC(=O)CCCCS(=O)(CCCCC(=O)OC)=NC(=O)c1cnc(N)c(C#Cc2cccc(NC(=O)c3occc3C)c2)c1 [Example 2, Dimethyl 5,5′-(N-{[6-amino-5-({3-[(3-methyl-2-furoyl)amino]phenyl}ethynyl)pyridin-3-yl]carbonyl}sulfonimidoyl)dipentanoate]
